Holding throughout (type): functional
Test [1] has as its system Mycobacterium tuberculosis variant bovis BCG. In words: Ratio of WCC99.9 for Mycobacterium bovis BCG ATCC 35734 under low-oxygen tension conditions to MIC90 for Mycobacterium bovis BCG ATCC 35734.
The test system is the same in test [2]. In words: Ratio of MBC99.9 to MIC90 for Mycobacterium bovis BCG ATCC 35734.
For test [3] the test system is unchanged. In words: Ratio of WCC99.9 for Mycobacterium bovis BCG ATCC 35734 under low-oxygen tension conditions to MBC99.9 for Mycobacterium bovis BCG ATCC 35734.

SMILES strings stand for the structures.

Consider `CCCCCCCCn1cc(CN2CCCCCC2)c2c(F)cccc21`, for which the Ratio in test [1] is reported as over 4; in test [2] it was 2; in test [3] it was over 2.

These data come from ChEMBL document CHEMBL4007488, “Amphiphilic Indole Derivatives as Antimycobacterial Agents: Structure-Activity Relationships and Membrane Targeting Properties” (J Med Chem, 2017).
